Columns and labels:
liver failure patients [1] = assay: Large-scale randomized clinical trial, 165 liver failure patients (control, LOLA, TMZ+LOLA)
Text: We recruited totally 298 patients with liver failure according to the American and European criteria.

[2] = test system: patients with liver failure / serious hepatitis; assay: Clinical cases: individual patients given oral TMZ on top of combined treatment; type: in vivo, human
Text: Case 1: The patient had past positive HBsAg for over 20 years, during which they took multiple reexaminations of liver function and, as the results of all color ultrasound examinations were within normal range, they were not given any special treatment. Three months before, after catching cold and overwork, they developed abdominal distension and yellow urine, and was admitted to hospital following aggravation of the condition over 6 days. On admission, they were complicated with massive seroperitoneum and serious xanthochromia throughout the skin and mucosa of their whole body, feeling serious nausea, anorexia and feebleness.
Case 2: had had yellow urine for 25 days and dry mouth and bitter taste in mouth for 10 days before they came to the First Affiliated Hospital of Zhengzhou University. […] If they had been treated with the original approach, it would probably have taken two months before they could be discharged from hospital.
Case 3: had past positive HBsAg for 8 years, without regular treatment or periodic reexamination of relevant indicators. […] They took orally some “stomach medicine” (specific medicine not known) with poor effect. After the aforesaid symptoms aggravated for half a month, with urine turning as yellow as strong tea water, they were admitted to the First Affiliated Hospital of Zhengzhou University on Jan. 21, 2015. […] In merely 12 days, the patient achieved decrease of transaminase by dozens of times, relief from the critical condition, alleviated hepatocyte inflammatory responses and a favorable condition for liver cells, and greatly shortened length of hospitalization.
Case 4: […] They felt abdominal distension and nausea, accompanied with hydroncus in lower limbs, when they were tired half a month ago. For further treatment, they were admitted to the First Affiliated Hospital of Zhengzhou University on Jan. 13, 2015. Color ultrasound examination of abdomen detected diffuse changes of echo patterns of liver, cholecystolithiasis and cholecystitis. […] The patient's liver enzyme decreased to normal level after a short period, meeting the requirements for a surgical operation. Following the operation, their abdominal pain disappeared, with liver enzyme back to normal level and improved appetite. Their quality of life improves now without any discomfort.
Case 5: had past positive HBsAg for over 10 years, with HBsAg (+), HBeAg (+) and HBcAb (+), and had atrial fibrillation over 5 years, during which they orally took traditional Chinese medicine intermittently, but without regular treatment. They complained of feebleness, nausea, dry mouth and bitter taste, and anorexia for 6 days, and was hospitalized on Jan. 31, 2015. After admission, they had ALT 1881 u/L, AST 699 u/L, and prothrombin time activity (PTA) at 26%. The patient was extremely weak, in very poor spirits, with very poor appetite. A notice of critical illness diagnosis was given. […] The patient achieved a rapid decrease of transaminase and obvious improvement of liver synthesis function, and was safe from the critical condition. They continued to take the medicine till maturity of the treatment course, to improve the hepatocyte microcirculation and excretion of bilirubin. The patient soon recovered and left hospital.

SD rats = assay: Hyperammonemia rat model (oral ammonium chloride, 30 days); type: in vivo; conditions: OA (LOLA) 0.8 g/kg, TMZ 0.002 g/kg orally, or both; FIG. 8
Text: All five groups of rats were sacrificed after 30 days with pentobarbital anesthesia. Cardiac blood samples were collected to test blood levels of ammonia, ALT and AST. Liver biopsy specimens were collected and subject to hematoxylin-eosin (HE) staining and TUNEL staining to assess pathology.

liver failure patients [3] = assay: Clinical cohort study of trimetazidine in hepatic failure patients (ALT/AST decrease, TMZ vs DCA); type: in vivo, human; conditions: after 5 days of treatment, both groups also on basic treatment incl. LOLA, FIG. 2
Text: The single-center cohort study was adopted as the clinical trial method.
In accordance with relevant references and the results of previous trials, the number of cases shall be no less than 50. Taking into account the number of loss to follow up and possible drop-out (to be controlled around 10%), 60 cases are required to be selected (30 cases for the trial group and 30 cases for the control group).
All serious hepatitis patients enrolled between Aug. 19, 2014 and […] were put in the control group; and all those enrolled between December 9 and the application date were in the trial group.
2. Exclusion Criteria • Patients under 18 or over 70 years old; • Patients diagnosed with shock liver (ischemic liver disease); • Patients with liver failure in pregnancy or HELLP syndrome; • Patients with liver failure secondary to malignant tumor in the liver; • Patients with refractory hypotension • Patients with septic shock; • Patients about to receive liver transplant (within 8 hours); • Patients allergic to trimetazidine drug; • Patients […] of trimetazidine drug; • Abuser of drugs and/or alcohol; • Pregnant or lactation women; • Patients with recent myocardial infarct (within half a year); • Patients with serious renal inadequacy.
2. Control group: Diisopropylamine Dichloroacetate (DCA) (80 mg/D) for the control group in this trial, provided by Dandong Yichuang Pharmaceutical Co., Ltd, for a 4-week course of treatment.
3. Both trial group and control group were also given basic treatment to meet ethical requirements. […] HBV-related liver failure patients were also treated with lamivudine.
1. Alanine aminotransferase (ALT), tested by chromatometry, with products provided by Roche Diagnostics (Shanghai) Ltd.
2. Aspartate transaminase (AST), tested by chromatometry, with products provided by Roche Diagnostics (Shanghai) Ltd.

Chang liver cells = type: cell-based; conditions: 10 mM NH4Cl; 1 mM LOLA, 1 mM TMZ, or 1 mM TMZ+1 mM LOLA; hypoxic (10% O2); FIG. 7
Procedure: Chang liver cells (American Type Culture Collection No. CCL-13) was cultured in RPMI1640 medium (Solarbio) containing 10% fetal bovine serum (Gibco), 100 u/mL penicillin and 100 μg/mL […], at 37° C. and under hypoxic conditions (10% O2, 5% CO2) and saturated humidity.

[4] = test system: liver of liver failure patients; assay: PET-CT imaging of liver FDG uptake before and after treatment; type: in vivo, human; conditions: liver failure patient(s), after vs before treatment; FIG. 4
Text: Intriguingly, we were able to compare the PET-CT images before and after liver failure recovery in two participants who underwent PET-CT imaging due to suspicious liver lesions by magnet renascence imaging.

Row | Molecule | 30-day immortality rate (liver failure patients [1]; TMZ treatment group (TMZ+LOLA), TMZ 20 mg orally three times a day, 4 weeks, 44% with traditional therapeutic approach, FIG. 5) | 90-day immortality rate (liver failure patients [1]; TMZ treatment group (TMZ+LOLA), TMZ 20 mg orally three times a day, 4 weeks, 68% with traditional therapeutic approach, FIG. 5) [%] | serious adverse reaction during the clinical trial (liver failure patients [1]; liver failure patients, TMZ 20 mg three times a day) | ALT ([2]; Case 1, HBsAg positive person, 12 days of TMZ one tablet three times a day plus combined treatment, ALT 270 u/L at admission) [u/L] | AST ([2]; Case 1, 12 days of TMZ, AST 303 u/L at admission) [u/L] | ALT ([2]; Case 2, serious drug-induced hepatitis, oral TMZ 20 days plus combined treatment, ALT 983 u/L at admission) [u/L] | total bilirubin ([2]; Case 2, oral TMZ 20 days, 401.9 umol/L at admission) [µmol/L] | AST ([2]; Case 2, oral TMZ 20 days, AST 484 u/L at admission) [u/L] | ALT ([2]; Case 3, acute-on-chronic liver failure, oral TMZ plus antiviral treatment, admitted Jan. 21, reexamined February 5 (12 days), ALT 1386 u/L at admission) [u/L] | AST ([2]; Case 3, reexamined February 5, AST 1368 u/L at admission) [u/L] | ALT ([2]; Case 4, HBsAg positive person, oral TMZ 13 days plus hepatoprotective and antiviral treatment, ALT 599 u/L before) [u/L] | AST ([2]; Case 4, oral TMZ 13 days, AST 663 u/L before) [u/L] | prothrombin time activity (PTA) ([2]; Case 5, one week of oral TMZ, 26% at admission) [%] | AST ([2]; Case 5, one week of oral TMZ, AST 699 u/L at admission) [u/L] | integrity of mitochondrial structure in hepatocytes exposed to ammonia (electron microscope) (SD rats) | ALT decrease (k, mathematical model) (liver failure patients [3]) | AST decrease (k, mathematical model) (liver failure patients [3]) | reduction of ammonia in hepatocytes (Chang liver cells) | FDG uptake / hepatic glucose metabolism of liver (PET-CT) [4]
1 | COc1ccc(CN2CCNCC2)c(OC)c1OC.Cl.Cl [TMZ, 1-[2,3,4-trimethoxybenzyl]piperazine dihydrochloride] | approximately 18% | 35 | no serious adverse reaction occurred | 41 | 68 | 95 | 130 | 52 | 76 | 85 | 66 | 79 | 48 | 77 | nearly reversed the ammonia-induced mitochondria injury | 259.4 | 362.53 | greater effects compared to both LOLA treatment and TMZ+LOLA co-treatment | remarkably improved
2 | Diisopropylamine Dichloroacetate [DCA] |  |  |  |  |  |  |  |  |  |  |  |  |  |  |  | 67.325 | 142.77 |  | 

Reference: patent US11020392B2, “Use of trimetazidine as a hepatoprotective medicine in prevention and treatment of liver diseases and conditions” (Martin Pharmaceuticals, Inc., priority 2015, dated 2021)
